Earlier results in patent US20050261335A1, “Carvedilol formulations” (priority 2002, published 2005).
Read-outs that look alike come from different tables or passages of the source.

solubility (above pH 9.0): < 1 µg/mL | saturation solubility (pH 5, room temperature): ~100 µg/mL | saturation solubility (pH 7, room temperature): ~23 µg/mL
Structure (SMILES): COc1ccccc1OCCNCC(O)COc1cccc2[nH]c3ccccc3c12 (racemic) [Carvedilol]
